The EC50 is the concentration that produces a half-maximal response. A lower EC50 goes with higher potency in that assay. For orientation: IC50 means the concentration that gives 50% inhibition. Read a high IC50 as weaker potency.

15 molecules from patent publication US20250129070A1, “BIFUNCTIONAL ANDROGEN RECEPTOR COMPOUNDS” (priority 2023, published 2025) can be followed below.

The subject of one test is AR / CBP ternary complex. In words: Ternary complex formation assay (sandwich ELISA, AR capture / CBP detection) in VCaP cell lysates. It is filed as cell-based. Conditions: 1.5 hours treatment, sandwich ELISA (AR capture, CBP or p300 detection). The method, boiled down:
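VCaP cells (50K/well, 5% charcoal-stripped FBS, ≥3 days) treated with bifunctional compound for 1.5 h, then lysed 30 min at 4 °C. AR captured on anti-AR (AR 441) plates; bound CBP or p300 detected by rabbit mAb plus HRP secondary. QuantaRed chemifluorescence read at ex 570/em 585, immediately and at 5 and 15 min.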
In general terms: An ELISA detects its analyte on a solid surface through an enzyme-linked reagent.

In the next test the test system is VCaP cells. Put plainly: VCaP growth inhibition assay. The test is classed as cell-based. Conditions: 30 pM R1881, 9 days, CTG. In a few lines:
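VCaP cells in phenol red-free DMEM/5% CSS, pre-incubated 72 h, then stimulated with R1881 (final 30 pM) and treated with 1:5 serial dilutions (final 100 nM to 10 fM) for 9 days at 37 °C. Viability by CellTiter-Glo luminescence; IC50 from 4-parameter logistic fit of RLU vs concentration.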

Molecules are shown by their SMILES. A value given as a limit tells only on which side of the number the result lay.

On to `COc1cc(OC2C(C)(C)C(NC(=O)c3ccc(N4CCC5(CCC(n6nc(N7CCCc8cc(-c9cnn(C)c9)c(C(F)F)cc87)c7c6CCN(C(C)=O)C7)CC5)C4)cc3)C2(C)C)ccc1C#N` (stereo not drawn) [Compound 406, 4-[8-[5-acetyl-3-[7-(difluoromethyl)-6-(1-methylpyrazol-4-yl)-3,4-dihydro-2H-quinolin-1-yl]-6,7-dihydro-4H-pyrazolo[4,3-c]pyridin-1-yl]-2-azaspiro[4.5]decan-2-yl]-N-[3-(4-cyano-3-methoxy-phenoxy)-2,2,4,4-tetramethyl-cyclobutyl]benzamide], for which the EC50 in the test with AR / CBP ternary complex was in the range of 1 to 10 nM. Besides, in the test with VCaP cells, the IC50 lay in the range of 1 to 100 nM.

In the case of `CC(=O)N1CCc2c(c(N3CCCc4ccccc43)nn2C2CCN(C(=O)C3CCN(c4ncc(C(=O)NC5C(C)(C)C(Oc6ccc(C#N)c(Cl)c6)C5(C)C)cn4)CC3)CC2)C1` (stereo not drawn) [Compound 129, 2-[4-[4-[5-acetyl-3-(3,4-dihydro-2H-quinolin-1-yl)-6,7-dihydro-4H-pyrazolo[4,3-c]pyridin-1-yl]piperidine-1-carbonyl]-1-piperidyl]-N-[3-(3-chloro-4-cyano-phenoxy)-2,2,4,4-tetramethyl-cyclobutyl]pyrimidine-5-carboxamide], the EC50 with AR / CBP ternary complex is < 1 nM. Moreover, the concentration for half-maximal inhibition (IC50) with VCaP cells was ≤ 0.1 nM.

Regarding `CN1C(=O)CCc2cc(N3CCCc4cc(-c5ccc(CCC6CCN(c7ncc(C(=O)NC8C(C)(C)C(Oc9ccc(C#N)c(Cl)c9)C8(C)C)cn7)CC6)nc5)c(C(F)F)cc43)ccc21` (stereo not drawn) [Compound 239, N-[3-(3-chloro-4-cyano-phenoxy)-2,2,4,4-tetramethyl-cyclobutyl]-2-[4-[2-[5-[7-(difluoromethyl)-1-(1-methyl-2-oxo-3,4-dihydroquinolin-6-yl)-3,4-dihydro-2H-quinolin-6-yl]-2-pyridyl]ethyl]-1-piperidyl]pyrimidine-5-carboxamide], in the test on AR / CBP ternary complex, the EC50 is < 1 nM. In the test with VCaP cells, this molecule came in with an IC50 of 1 to 100 nM.

On to `CC(=O)N1CCc2c(c(-c3cccc4cc(-c5ccc(COc6ncc(C(=O)NC7C(C)(C)C(Oc8ccc(C#N)c(Cl)c8)C7(C)C)cn6)nc5)ncc34)nn2C2CCOCC2)C1` (stereo not drawn) [Compound 71, 2-[[5-[8-(5-acetyl-1-tetrahydropyran-4-yl-6,7-dihydro-4H-pyrazolo[4,3-c]pyridin-3-yl)-3-isoquinolyl]-2-pyridyl]methoxy]-N-[3-(3-chloro-4-cyano-phenoxy)-2,2,4,4-tetramethyl-cyclobutyl]pyrimidine-5-carboxamide], for which the EC50 in the test with AR / CBP ternary complex was < 1 nM. In the test with VCaP cells, the IC50 was 1 to 100 nM.

As to `COc1cc(OC2C(C)(C)C(NC(=O)c3ccc(N4CCN(CCc5ccc(-c6cc7c(cn6)N(c6nn(C8CCOCC8)c8c6CN(C(C)=O)CC8)CCC7)cn5)CC4)cc3)C2(C)C)ccc1C#N` (stereo not drawn) [Compound 251, 4-[4-[2-[5-[1-(5-acetyl-1-tetrahydropyran-4-yl-6,7-dihydro-4H-pyrazolo[4,3-c]pyridin-3-yl)-3,4-dihydro-2H-1,7-naphthyridin-6-yl]-2-pyridyl]ethyl]piperazin-1-yl]-N-[3-(4-cyano-3-methoxy-phenoxy)-2,2,4,4-tetramethyl-cyclobutyl]benzamide], in the test on AR / CBP ternary complex, the concentration giving a half-maximal response (EC50) was < 1 nM. The molecule further displayed an IC50 in the test with VCaP cells of 0.1 to 1 nM.

On to `CC(=O)N1CCc2c(c(N3CCCc4cc(-c5cnn(C)c5)c(C)cc43)nn2C2CCN(CC3CCN(c4ncc(C(=O)NC5C(C)(C)C(Oc6ccc(C#N)c(Cl)c6)C5(C)C)cn4)CC3)CC2)C1` (stereo not drawn) [Compound 26, 2-[4-[[4-[5-acetyl-3-[7-methyl-6-(1-methylpyrazol-4-yl)-3,4-dihydro-2H-quinolin-1-yl]-6,7-dihydro-4H-pyrazolo[4,3-c]pyridin-1-yl]-1-piperidyl]methyl]-1-piperidyl]-N-[3-(3-chloro-4-cyano-phenoxy)-2,2,4,4-tetramethyl-cyclobutyl]pyrimidine-5-carboxamide], for which the EC50 in the test on AR / CBP ternary complex is < 1 nM. In addition, the IC50 in the test with VCaP cells fell in the range of 0.1 to 1 nM.

Take `CC(=O)N1CCc2c(c(Nc3ccc(-c4cnn(C)c4)cc3F)nn2C2CN(C3CCN(c4ncc(C(=O)NC5C(C)(C)C(Oc6ccc(C#N)c(Cl)c6)C5(C)C)cn4)CC3)C2)C1` (stereo not drawn) [Compound 5, 2-[4-[3-[5-acetyl-3-[2-fluoro-4-(1-methylpyrazol-4-yl)anilino]-6,7-dihydro-4H-pyrazolo[4,3-c]pyridin-1-yl]azetidin-1-yl]-1-piperidyl]-N-[3-(3-chloro-4-cyano-phenoxy)-2,2,4,4-tetramethyl-cyclobutyl]pyrimidine-5-carboxamide]: the concentration giving a half-maximal response (EC50) with AR / CBP ternary complex was > 100 nM. Besides, the IC50 with VCaP cells was > 100 nM.

With `COc1cc(OC2C(C)(C)C(NC(=O)c3ccc(N4CCC(CCc5ccc(-c6cc7c(cn6)N(c6nn(C8CCOCC8)c8c6CN(C(C)=O)CC8)CCC7)cn5)CC4)cc3)C2(C)C)ccc1C#N` (stereo not drawn) [Compound 246, 4-[4-[2-[5-[1-(5-acetyl-1-tetrahydropyran-4-yl-6,7-dihydro-4H-pyrazolo[4,3-c]pyridin-3-yl)-3,4-dihydro-2H-1,7-naphthyridin-6-yl]-2-pyridyl]ethyl]-1-piperidyl]-N-[3-(4-cyano-3-methoxy-phenoxy)-2,2,4,4-tetramethyl-cyclobutyl]benzamide], the EC50 with AR / CBP ternary complex is < 1 nM. In the test on VCaP cells, this molecule yielded an IC50 of 0.1 to 1 nM.

In the test on AR / CBP ternary complex, `CC(=O)N1CCc2c(c(N3CCCc4cc(-c5cnn(C)c5)c(C(F)F)cc43)nn2C2CCN(Cc3ncc(C(=O)NC4C(C)(C)C(Oc5ccc(C#N)c(Cl)c5)C4(C)C)cn3)CC2)C1` (stereo not drawn) [Compound 94, 2-[[4-[5-acetyl-3-[7-(difluoromethyl)-6-(1-methylpyrazol-4-yl)-3,4-dihydro-2H-quinolin-1-yl]-6,7-dihydro-4H-pyrazolo[4,3-c]pyridin-1-yl]-1-piperidyl]methyl]-N-[3-(3-chloro-4-cyano-phenoxy)-2,2,4,4-tetramethyl-cyclobutyl]pyrimidine-5-carboxamide] registered a 50% effective concentration (EC50) of 10 to 100 nM. Further, in the test on VCaP cells, the IC50 fell in the range of 1 to 100 nM.

`CC(=O)N1CCc2c(c(N3CCCc4cc(-c5cnn(C)c5)c(C(F)F)cc43)nn2C2CN(CC3CCN(c4ncc(C(=O)NC5C(C)(C)C(Oc6ccc(C#N)c(Cl)c6)C5(C)C)cn4)CC3)C2)C1` (stereo not drawn) [Compound 10, 2-[4-[[3-[5-acetyl-3-[7-(difluoromethyl)-6-(1-methylpyrazol-4-yl)-3,4-dihydro-2H-quinolin-1-yl]-6,7-dihydro-4H-pyrazolo[4,3-c]pyridin-1-yl]azetidin-1-yl]methyl]-1-piperidyl]-N-[3-(3-chloro-4-cyano-phenoxy)-2,2,4,4-tetramethyl-cyclobutyl]pyrimidine-5-carboxamide]: the EC50 in the test with AR / CBP ternary complex is > 100 nM. In the test with VCaP cells, the IC50 is 1 to 100 nM.

In the case of `CC(=O)N1CCc2c(c(N3CCCc4ccc(C(F)F)cc43)nn2C2CCN(C(=O)C3CCN(c4ncc(C(=O)NC5C(C)(C)C(Oc6ccc(C#N)c(Cl)c6)C5(C)C)cn4)CC3)CC2)C1` (stereo not drawn) [Compound 122, 2-[4-[4-[5-acetyl-3-[7-(difluoromethyl)-3,4-dihydro-2H-quinolin-1-yl]-6,7-dihydro-4H-pyrazolo[4,3-c]pyridin-1-yl]piperidine-1-carbonyl]-1-piperidyl]-N-[3-(3-chloro-4-cyano-phenoxy)-2,2,4,4-tetramethyl-cyclobutyl]pyrimidine-5-carboxamide], the EC50 in the test with AR / CBP ternary complex is < 1 nM. Moreover, the half-maximal inhibitory concentration (IC50) in the test with VCaP cells was ≤ 0.1 nM.

Take `CC(=O)N1CCc2c(c(N3CCCc4cc(-c5cnn(C)c5)c(C(F)F)cc43)nn2C2CCN(C3CCC4(CC3)CN(c3ncc(C(=O)NC5C(C)(C)C(Oc6ccc(C#N)c(Cl)c6)C5(C)C)cn3)C4)CC2)C1` (stereo not drawn) [Compound 274, 2-[7-[4-[5-acetyl-3-[7-(difluoromethyl)-6-(1-methylpyrazol-4-yl)-3,4-dihydro-2H-quinolin-1-yl]-6,7-dihydro-4H-pyrazolo[4,3-c]pyridin-1-yl]-1-piperidyl]-2-azaspiro[3.5]nonan-2-yl]-N-[3-(3-chloro-4-cyano-phenoxy)-2,2,4,4-tetramethyl-cyclobutyl]pyrimidine-5-carboxamide]: the EC50 in the test on AR / CBP ternary complex is < 1 nM. Moreover, the IC50 in the test on VCaP cells is ≤ 0.1 nM.

In the case of `CC(=O)N1CCc2c(c(-c3cccc4cc(-c5ccc(C(=O)NCCc6ncc(C(=O)NC7C(C)(C)C(Oc8ccc(C#N)c(Cl)c8)C7(C)C)cn6)nc5)ncc34)nn2C2CCOCC2)C1` (stereo not drawn) [Compound 78, 2-[2-[[5-[8-(5-acetyl-1-tetrahydropyran-4-yl-6,7-dihydro-4H-pyrazolo[4,3-c]pyridin-3-yl)-3-isoquinolyl]pyridine-2-carbonyl]amino]ethyl]-N-[3-(3-chloro-4-cyano-phenoxy)-2,2,4,4-tetramethyl-cyclobutyl]pyrimidine-5-carboxamide], in the test with AR / CBP ternary complex, the EC50 was < 1 nM. The molecule further came in with an IC50 with VCaP cells of 1 to 100 nM.

Turning to `COC(=O)N1c2ccc3c(nc(Cc4ccccc4)n3[C@@H]3CCC[C@@H](C(=O)N4CCN(c5ncc(C(=O)NC6C(C)(C)C(Oc7ccc(C#N)c(Cl)c7)C6(C)C)cn5)CC4)C3)c2CC[C@@H]1C` (stereo partly drawn) [Compound 127, methyl (7S)-2-benzyl-3-[(1R,3R)-3-[4-[5-[[3-(3-chloro-4-cyano-phenoxy)-2,2,4,4-tetramethyl-cyclobutyl]carbamoyl]pyrimidin-2-yl]piperazine-1-carbonyl]cyclohexyl]-7-methyl-8,9-dihydro-7H-imidazo[4,5-f]quinoline-6-carboxylate], the EC50 in the test with AR / CBP ternary complex was < 1 nM. Moreover, the IC50 in the test on VCaP cells is ≤ 0.1 nM.

Take `COc1cc(OC2C(C)(C)C(NC(=O)c3ccc(N4CC5(CCC(N6CCC(n7nc(N8CCCc9cc(-c%10ccn(C)n%10)c(C(F)F)cc98)c8c7CCN(C(C)=O)C8)CC6)CC5)C4)cc3)C2(C)C)ccc1C#N` (stereo not drawn) [Compound 432, 4-[7-[4-[5-acetyl-3-[7-(difluoromethyl)-6-(1-methylpyrazol-3-yl)-3,4-dihydro-2H-quinolin-1-yl]-6,7-dihydro-4H-pyrazolo[4,3-c]pyridin-1-yl]-1-piperidyl]-2-azaspiro[3.5]nonan-2-yl]-N-[3-(4-cyano-3-methoxy-phenoxy)-2,2,4,4-tetramethyl-cyclobutyl]benzamide]: the EC50 in the test with AR / CBP ternary complex is < 1 nM. For the same molecule, the IC50 with VCaP cells was ≤ 0.1 nM.
